Data: the supplement of paper PMC11451515

What was measured:
Details in all cases: 48 h
[1] = system: NOMO1; assay: cell viability relative to DMSO control; higher = less cytotoxic
Method in brief: (§1)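 Three leukemia lines were tested: NOMO1 and SEM at 500 cells/well and P12-Ichikawa at 1000 cells/well. Each was adapted for at least four passages in each medium and seeded in 5 μl in 1536-well plates, and library compounds in DMSO were pin-dosed from 47 μM to 0.79 nM in 11 threefold steps. After 48 h at 37°C, CellTiter-Glo One luminescence was read. Viability is a percentage relative to DMSO wells on each plate, with cell-free wells as background.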

[2] = system: P12-Ichikawa; assay: as above
Method in brief: as §1

[3] = system: SEM cells; assay: as above
Method in brief: as §1

[4] = system: NOMO1; assay: AUC of viability dose-response curve (% viability x log10 dose units); higher = less sensitive
Method in brief: (§2)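 Over 48 h at 37°C, leukemia cells in 1536-well plates (500 or 1000 cells/well), adapted to each medium, received library compounds in DMSO at 11 threefold doses from 47 μM to 0.79 nM. CellTiter-Glo One luminescence, normalised per plate to DMSO and cell-free wells, was fitted by a four-parameter log-logistic function of log10 dose. The area under the curve was then integrated by trapezoidal rule, after scaling curves above full viability and removing those that failed quality control.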

[5] = system: P12-Ichikawa; assay: as above
Method in brief: as §2

[6] = system: SEM cells; assay: as above
Method in brief: as §2

Cc1ccc([S+](=O)([O-])OCC(=O)Nc2ccc(C(=O)O)c(O)c2)cc1
cell viability [%]
Details | [1] | [2] | [3]
HPLM + 10% dialyzed FBS, 0.000781 µM | 141 | 106 | 101
HPLM + 10% dialyzed FBS, 0.00234 µM | 123 | 117 | 97.1
HPLM + 10% dialyzed FBS, 0.00702 µM | 121 | 122 | 127
HPLM + 10% dialyzed FBS, 0.0211 µM | 117 | 126 | 118
HPLM + 10% dialyzed FBS, 0.0632 µM | 124 | 126 | 125
HPLM + 10% dialyzed FBS, 0.19 µM | 145 | 133 | 106
HPLM + 10% dialyzed FBS, 0.569 µM | 128 | 120 | 125
HPLM + 10% dialyzed FBS, 1.71 µM | 132 | 136 | 132
HPLM + 10% dialyzed FBS, 5.12 µM | 124 | 121 | 136
HPLM + 10% dialyzed FBS, 15.4 µM | 146 | 102 | 137
HPLM + 10% dialyzed FBS, 46.1 µM | 84.1 | 8.9 | 80.5
RPMI 5 mM glucose + 10% FBS, 0.000781 µM | 122 | – | 107
RPMI 5 mM glucose + 10% FBS, 0.00234 µM | 119 | – | 109
RPMI 5 mM glucose + 10% FBS, 0.00702 µM | 124 | – | 124
RPMI 5 mM glucose + 10% FBS, 0.0211 µM | 139 | – | 122
RPMI 5 mM glucose + 10% FBS, 0.0632 µM | 133 | – | 138
RPMI 5 mM glucose + 10% FBS, 0.19 µM | 150 | – | 130
RPMI 5 mM glucose + 10% FBS, 0.569 µM | 133 | – | 150
RPMI 5 mM glucose + 10% FBS, 1.71 µM | 130 | – | 142
RPMI 5 mM glucose + 10% FBS, 5.12 µM | 118 | – | 153
RPMI 5 mM glucose + 10% FBS, 15.4 µM | 121 | – | 81.9
RPMI 5 mM glucose + 10% FBS, 46.1 µM | 102 | – | 11.9
RPMI 5 mM glucose + 10% dialyzed FBS, 0.000781 µM | 106 | – | 99.7
RPMI 5 mM glucose + 10% dialyzed FBS, 0.00234 µM | 113 | – | 103
RPMI 5 mM glucose + 10% dialyzed FBS, 0.00702 µM | 127 | – | 134
RPMI 5 mM glucose + 10% dialyzed FBS, 0.0211 µM | 121 | – | 131
RPMI 5 mM glucose + 10% dialyzed FBS, 0.0632 µM | 131 | – | 123
RPMI 5 mM glucose + 10% dialyzed FBS, 0.19 µM | 139 | – | 140
RPMI 5 mM glucose + 10% dialyzed FBS, 0.569 µM | 142 | – | 125
RPMI 5 mM glucose + 10% dialyzed FBS, 1.71 µM | 142 | – | 147
RPMI 5 mM glucose + 10% dialyzed FBS, 5.12 µM | 146 | – | 144
RPMI 5 mM glucose + 10% dialyzed FBS, 15.4 µM | 146 | – | 109
RPMI 5 mM glucose + 10% dialyzed FBS, 46.1 µM | 122 | – | 43.7

AUC of viability dose-response curve
Details | [4] | [5] | [6]
HPLM + 10% dialyzed FBS | 469 | 446 | 458
RPMI 5 mM glucose + 10% FBS | 460 | 469 | 438
RPMI 5 mM glucose + 10% dialyzed FBS | 448 | 465 | 455

Cc1csc(-c2nnc(Nc3ccc(Oc4ncccc4-c4ccnc(N)n4)cc3)c3ccccc23)c1
cell viability [%]
Details | [1] | [2] | [3]
HPLM + 10% dialyzed FBS, 0.000781 µM | 106 | 107 | 104
HPLM + 10% dialyzed FBS, 0.00234 µM | 101 | 111 | 114
HPLM + 10% dialyzed FBS, 0.00702 µM | 113 | 104 | 114
HPLM + 10% dialyzed FBS, 0.0211 µM | 79 | 15.1 | 56
HPLM + 10% dialyzed FBS, 0.0632 µM | 95.3 | 16.6 | 46
HPLM + 10% dialyzed FBS, 0.19 µM | 89.3 | 14.6 | 48.9
HPLM + 10% dialyzed FBS, 0.569 µM | 99.5 | 19.1 | 45
HPLM + 10% dialyzed FBS, 1.71 µM | 86.7 | 23.2 | 42.1
HPLM + 10% dialyzed FBS, 5.12 µM | 72.6 | 20.1 | 32.5
HPLM + 10% dialyzed FBS, 15.4 µM | 76.3 | 18.7 | 36.5
HPLM + 10% dialyzed FBS, 46.1 µM | 84.1 | 22 | 34.2
RPMI 5 mM glucose + 10% FBS, 0.000781 µM | 99.9 | 104 | 108
RPMI 5 mM glucose + 10% FBS, 0.00234 µM | 111 | 116 | 100
RPMI 5 mM glucose + 10% FBS, 0.00702 µM | 97.5 | 106 | 102
RPMI 5 mM glucose + 10% FBS, 0.0211 µM | 53.2 | 22.3 | 55.2
RPMI 5 mM glucose + 10% FBS, 0.0632 µM | 45.9 | 20.1 | 25.5
RPMI 5 mM glucose + 10% FBS, 0.19 µM | 52.6 | 16.7 | 24.5
RPMI 5 mM glucose + 10% FBS, 0.569 µM | 75.1 | 20.3 | 23.9
RPMI 5 mM glucose + 10% FBS, 1.71 µM | 81.6 | 26.5 | 28.6
RPMI 5 mM glucose + 10% FBS, 5.12 µM | 65.9 | 26.4 | 18.7
RPMI 5 mM glucose + 10% FBS, 15.4 µM | 67.3 | 24.3 | 18.7
RPMI 5 mM glucose + 10% FBS, 46.1 µM | 74.1 | 24.9 | 21
RPMI 5 mM glucose + 10% dialyzed FBS, 0.000781 µM | 105 | 117 | 94
RPMI 5 mM glucose + 10% dialyzed FBS, 0.00234 µM | 103 | 109 | 107
RPMI 5 mM glucose + 10% dialyzed FBS, 0.00702 µM | 89.8 | 108 | 115
RPMI 5 mM glucose + 10% dialyzed FBS, 0.0211 µM | 60.3 | 27.8 | 36.4
RPMI 5 mM glucose + 10% dialyzed FBS, 0.0632 µM | 62 | 24.8 | 30
RPMI 5 mM glucose + 10% dialyzed FBS, 0.19 µM | 59 | 27.1 | 34
RPMI 5 mM glucose + 10% dialyzed FBS, 0.569 µM | 72.6 | 34.4 | 34.6
RPMI 5 mM glucose + 10% dialyzed FBS, 1.71 µM | 77.9 | 39.9 | 29.1
RPMI 5 mM glucose + 10% dialyzed FBS, 5.12 µM | 72.5 | 43.5 | 29.5
RPMI 5 mM glucose + 10% dialyzed FBS, 15.4 µM | 84.1 | 39.6 | 28.5
RPMI 5 mM glucose + 10% dialyzed FBS, 46.1 µM | 80.5 | 38.1 | 28.5

AUC of viability dose-response curve
Details | [4] | [5] | [6]
HPLM + 10% dialyzed FBS | 408 | 178 | 258
RPMI 5 mM glucose + 10% FBS | 334 | 191 | 211
RPMI 5 mM glucose + 10% dialyzed FBS | 357 | 226 | 226
